According to the supplement of paper PMC10307832:

Experiments:
Assay in all cases: relative viability (nuclei count vs DMSO), 5 days (fraction); higher = more cells survive
Doramapimod + OSI-027 = compound: Cc1ccc(-n2nc(C(C)(C)C)cc2NC(=O)Nc2ccc(OCCN3CCOCC3)c3ccccc23)cc1 [Doramapimod] + COc1cccc2cc(-c3nc([C@H]4CC[C@H](C(=O)O)CC4)n4ncnc(N)c34)[nH]c12 [OSI-027] (partner 0.5 µM)
Summary of the method: (§1)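 Lung cancer cell lines were seeded in 1536-well plates and dosed by pin tool the next day, with either a single drug or a fixed anchor-drug dose combined with five library-drug doses (not always all listed) spaced in √10 steps. Five days later, one step fixed the cells and stained their nuclei (final 0.05% Triton X-100, 1% formaldehyde, 1 ug/ml Hoechst), and nuclei were counted on 4× images. Relative viability is the nuclei count in treated wells divided by the count in vehicle wells, and each value is the median of duplicate plates.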

IPA-3 + Alpelisib = compound: C1=CC=C2C(=C1)C=CC(=C2SSC3=C(C=CC4=CC=CC=C43)O)O [IPA-3] + Cc1nc(NC(=O)N2CCC[C@H]2C(N)=O)sc1-c1ccnc(C(C)(C)C(F)(F)F)c1 [Alpelisib] (partner 2 µM)
Summary of the method: as §1

IPA-3 + Dasatinib = compound: C1=CC=C2C(=C1)C=CC(=C2SSC3=C(C=CC4=CC=CC=C43)O)O [IPA-3] + Cc1nc(Nc2ncc(C(=O)Nc3c(C)cccc3Cl)s2)cc(N2CCN(CCO)CC2)n1 [Dasatinib] (partner 0.075 µM)
Summary of the method: as §1

Doramapimod + Pemetrexed = compound: Cc1ccc(-n2nc(C(C)(C)C)cc2NC(=O)Nc2ccc(OCCN3CCOCC3)c3ccccc23)cc1 [Doramapimod] + Nc1nc2[nH]cc(CCc3ccc(C(=O)N[C@@H](CCC(=O)O)C(=O)O)cc3)c2c(=O)[nH]1 [Pemetrexed] (partner 0.2 µM)
Summary of the method: as §1

Cell Line | relative viability (Doramapimod + OSI-027; first compound 0.02 µM) | relative viability (Doramapimod + OSI-027; first compound 0.06325 µM) | relative viability (Doramapimod + OSI-027; first compound 0.2 µM) | relative viability (Doramapimod + OSI-027; first compound 0.6325 µM) | relative viability (Doramapimod + OSI-027; first compound 2 µM) | relative viability (IPA-3 + Alpelisib; first compound 0.2 µM) | relative viability (IPA-3 + Alpelisib; first compound 2 µM) | relative viability (IPA-3 + Alpelisib; first compound 6.325 µM) | relative viability (IPA-3 + Alpelisib; first compound 20 µM) | relative viability (IPA-3 + Dasatinib; first compound 0.2 µM) | relative viability (IPA-3 + Dasatinib; first compound 0.6325 µM) | relative viability (IPA-3 + Dasatinib; first compound 2 µM) | relative viability (IPA-3 + Dasatinib; first compound 6.325 µM) | relative viability (IPA-3 + Dasatinib; first compound 20 µM) | relative viability (Doramapimod + Pemetrexed; first compound 0.02 µM) | relative viability (Doramapimod + Pemetrexed; first compound 0.06325 µM) | relative viability (Doramapimod + Pemetrexed; first compound 0.2 µM) | relative viability (Doramapimod + Pemetrexed; first compound 0.6325 µM) | relative viability (Doramapimod + Pemetrexed; first compound 2 µM) | relative viability (IPA-3 + Alpelisib; first compound 0.6325 µM)
SK-LU-1 | 0.332 | 0.382 | 0.379 | 0.35 | 0.383 | 1.49 | 0.974 | 0.859 | 0.739 | 0.171 | 0.148 | 0.204 | 0.179 | 0.193 | 1 | 0.937 | 0.964 | 0.863 | 0.946 | –
LOU-NH91 | 0.776 | 0.752 | 0.738 | 0.769 | 0.559 | 0.717 | 0.723 | 0.674 | 0.914 | 0.628 | 0.568 | 0.573 | 0.542 | 0.697 | 0.388 | 0.396 | 0.355 | 0.379 | 0.395 | 0.702
LXF-289 | 0.765 | 0.762 | 0.72 | 0.686 | 0.605 | 1.08 | 1.03 | 1.02 | 1.13 | 0.279 | 0.264 | 0.28 | 0.176 | 0.237 | 0.959 | 0.914 | 0.83 | 0.863 | 0.971 | 0.978
NCI-H1299 | – | – | – | – | – | 1.07 | 1.02 | 1.07 | 1.06 | – | – | – | – | – | – | – | – | – | – | 1.07
HARA | 0.482 | 0.371 | 0.392 | – | 0.327 | 0.897 | 0.919 | 0.804 | 1.05 | 0.264 | 0.245 | 0.286 | 0.348 | 0.277 | 0.246 | 0.234 | 0.266 | 0.314 | 0.225 | 0.784
LU99A | 0.299 | 0.341 | 0.261 | 0.344 | 0.272 | 0.551 | 0.512 | 0.531 | 0.528 | 0.584 | 0.61 | 0.642 | 0.725 | 0.669 | 0.175 | 0.196 | 0.155 | 0.18 | 0.323 | 0.451
201T | 0.629 | 0.785 | 0.71 | 0.782 | 0.781 | 1.02 | 0.997 | 0.936 | 1.04 | 0.576 | 0.57 | 0.604 | 0.616 | 0.65 | 0.308 | 0.333 | 0.347 | 0.331 | 0.318 | 1.01
HCC-827 | 0.715 | 0.762 | 0.756 | 0.763 | 0.544 | 0.972 | 0.971 | 0.978 | 1.01 | 0.419 | 0.358 | 0.405 | 0.302 | 0.292 | 0.238 | 0.253 | 0.254 | 0.242 | 0.199 | 0.961
NCI-H1666 | 0.974 | 0.852 | 0.846 | 0.787 | 0.772 | 1.09 | 1 | 1.12 | 0.844 | 0.908 | 0.825 | 0.871 | 0.836 | 0.855 | 0.841 | 0.916 | 0.819 | 0.948 | 0.913 | 0.978
NCI-H1915 | 0.591 | 0.622 | 0.671 | 0.606 | 0.561 | 1.17 | 1.09 | 1.03 | 1.07 | 0.317 | 0.297 | 0.312 | 0.316 | 0.334 | 0.452 | 0.464 | 0.498 | 0.699 | 0.419 | 1.05
NCI-H2009 | 0.657 | 0.72 | 0.773 | 0.765 | 0.587 | 1.22 | 1.24 | 1.16 | 1.14 | 0.346 | 0.307 | 0.287 | 0.295 | 0.19 | 1.03 | 1.04 | 1.06 | 1.01 | 1 | 1.18
ChaGo-K-1 | 0.632 | 0.607 | 0.63 | 0.518 | 0.409 | – | – | – | – | 0.699 | 0.54 | 0.526 | 0.621 | 0.614 | 0.263 | 0.254 | 0.255 | 0.26 | 0.243 | –
COR-L 105 | 0.799 | 0.745 | 0.703 | 0.771 | 0.612 | 0.998 | 1.17 | 0.859 | 1.11 | 0.401 | 0.34 | 0.305 | 0.332 | 0.272 | 1.21 | 1.05 | 0.995 | 1.31 | 0.951 | 0.964
NCI-H2170 | 0.724 | 0.784 | 0.716 | 0.712 | 0.677 | 0.871 | 0.894 | 0.727 | 0.806 | 0.573 | 0.339 | 0.467 | 0.614 | 0.613 | 0.278 | 0.261 | 0.256 | 0.28 | 0.259 | 0.781
A549 | – | – | – | – | – | 0.926 | 0.838 | 0.753 | 0.745 | – | – | – | – | – | – | – | – | – | – | 0.705
SW 1573 | 0.585 | 0.514 | 0.485 | 0.586 | 0.352 | 0.891 | 0.8 | 0.726 | 0.988 | 0.689 | 0.395 | 0.589 | 0.452 | 0.151 | 0.772 | 0.794 | 0.773 | 0.938 | 0.721 | 0.777
NCI-H1975 | 0.703 | 0.741 | 0.802 | 0.792 | 0.663 | 0.644 | 0.628 | 0.753 | 0.708 | 0.466 | 0.368 | 0.337 | 0.334 | 0.299 | 0.305 | 0.276 | 0.304 | 0.293 | 0.282 | 0.65
Calu-6 | – | – | – | – | – | 1.08 | 1.01 | 0.928 | 0.924 | – | – | – | – | – | – | – | – | – | – | 1.01
